Data reported in patent EP0565593B1, “REDUCING PESTICIDAL INTERACTIONS IN CROPS” (priority 1990, dated 1992).
Values joined by “and” are separate entries in the source; they are usually repeats but may differ in a detail not shown here. Equal entries are not always repeated. Where two headings read alike, the source gives them in different places.

How the values were obtained:
Corn [1] = assay: whole plant or invertebrate; settings: Zea mays, iv; for inhibition at 20 g/ha: read-out: % Inhibition Corn, XRD-498 0.02 Kg/Ha alone
SJCA = assay: Greenhouse test Procedure IV: herbicide, biocide and antidote PPI, weed SJCA (Examples 53-55; Tables 52-54); format: in vivo; settings: Herbicide No. 21 0.14 Kg/Ha, all PPI
From the text: The test in this example paralleled that in Example 51, except the procedure was according to Procedure IV above and the herbicides used were No. 1 (MON-12000); No. 21 (XRD-498) and, again, No. 18 (PURSUIT); the biocide was, again, MOCAP®. Observations were taken thirteen (13) days after PPI treatment with biocide and antidote.
This test was identical to that in Example 52, except for use of a different biocide, DIAZINON (Biocide No. 5, a nematicide and soil insecticide).
This test was also identical to that in the preceding two examples, except that the biocide was malathion (No. 7, an insecticide).
This test was identical to the preceding ones, except the biocide was DPX-43898 (No. 6, active ingredient in FORTRESS® insecticide, a soil insecticide). Also, the observation time was fourteen (14) days after PPI initiation.

Corn [2] = tested on: Corn
Velvetleaf (VELE) = assay: whole plant or invertebrate; format: in vivo, Abutilon theophrasti; settings: for inhibition at 140 g/ha / inhibition at 20 g/ha: Abutilon theophrasti, iv; for inhibition at 20 g/ha: XRD-498 0.02 Kg/Ha alone
Giant foxtail (GIFT) = assay: whole plant or invertebrate; format: in vivo; settings: for inhibition at 140 g/ha / inhibition at 20 g/ha: Setaria faberi, iv; for inhibition at 20 g/ha: XRD-498 0.02 Kg/Ha alone
[3] = 312 h, PPI, 13 days after PPI (Table 31)
[4] = 336 h, PPI, 14 days after PPI (Table 34)
[5] = Herb. […], PPI, 13 days after planting
[6] = Herbicide No. 21 0.0175 Kg/Ha PPI alone, Table 23
[7] = Herbicide No. 21 0.0175 Kg/Ha PPI alone, Table 24
[8] = Herbicide No. 21 0.0175 Kg/Ha PPI alone, Table 25
[9] = Herbicide No. 21 0.0175 Kg/Ha PPI alone, Table 26
[10] = XRD-498 0.02 Kg/Ha PPI alone, 13 days after treatment
[11] = […], PPI, 13 days after PPI (Table 31)
[12] = […], PPI, 14 days after PPI (Table 34)
[13] = 312 h, Herb. No. 21 0.14 kg/Ha alone, PPI, 13 days after planting
[14] = 312 h, Table 51, Herbicide No. 21 0.14 Kg/Ha, where applied Biocide No. 8 8.96 kg/Ha and antidote 4.48 Kg/Ha, all PPI, observed 13 days after treatment

In the case of `Cc1ccn2nc(S(=O)(=O)Nc3c(F)cccc3F)nc2n1` [Herbicide No. 21, 5-Methyl-N-(2,6-difluorophenyl)-1,2,4-triazolo[1,5-a]pyrimidine-2-sulfonamide, reference compound], the inhibition at 140 g/ha (Corn [1]; 312 h, read-out: % Inhibition Corn, Herb. No. 21 0.14 kg/Ha alone, PPI, 13 days after planting) is reported as 5%, the inhibition at 140 g/ha (Corn [1]; 312 h, read-out: % Inhibition Corn, Table 51, Herbicide No. 21 0.14 Kg/Ha, where applied Biocide No. 8 8.96 kg/Ha and antidote 4.48 Kg/Ha, all PPI, observed 13 days after treatment) is reported as 10% and the inhibition at 140 g/ha (Corn [1]; 312 h, read-out: % Inhibition Corn, Table 52, Herbicide No. 21 0.14 Kg/Ha, where applied Biocide No. 5 8.96 kg/Ha and antidote 4.48 Kg/Ha, all PPI, observed 13 days after treatment) is reported as 5%. The inhibition at 140 g/ha (Corn [1]; 312 h, read-out: % Inhibition Corn, Table 53, Herbicide No. 21 0.14 Kg/Ha, where applied Biocide No. 7 8.96 kg/Ha and antidote 4.48 Kg/Ha, all PPI, observed 13 days after treatment) was 10%, the inhibition at 20 g/ha (Corn [1]; [3]) was 5% and the inhibition at 140 g/ha (Corn [1]; 336 h, read-out: % Inhibition Corn, Table 54, Herbicide No. 21 0.14 Kg/Ha, where applied Biocide No. 6 8.96 kg/Ha and antidote 4.48 Kg/Ha, all PPI, observed 14 days after PPI initiation) was 10%. For the same molecule, the inhibition at 20 g/ha (Corn [1]; [4]) was 20%, the inhibition at 140 g/ha (SJCA; 312 h, Table 52, where applied Biocide No. 5 8.96 kg/Ha and antidote 4.48 Kg/Ha, observed 13 days after treatment) was 70% and the inhibition at 140 g/ha (SJCA; 312 h, Table 53, where applied Biocide No. 7 8.96 kg/Ha and antidote 4.48 Kg/Ha, observed 13 days after treatment) was 75%. The inhibition at 140 g/ha (SJCA; 336 h, Table 54, where applied Biocide No. 6 8.96 kg/Ha and antidote 4.48 Kg/Ha, observed 14 days after PPI initiation) was 60%, the “% Inhibition Corn” value (Corn [2]; [5]) was 75% and the “% Inhibition Corn” value (Corn [2]; [6]) was 0%. For the same molecule, the “% Inhibition Corn” value (Corn [2]; [7]) was 0%, the “% Inhibition Corn” value (Corn [2]; [8]) was 0% and the “% Inhibition Corn” value (Corn [2]; [9]) was 5%. The “% Inhibition Corn” value (Corn [2]; [10]) was 15%, the corn injury (Corn [2]; XRD-498 with OP insecticides, Examples 24-27) was 30-55% and the corn injury (Corn [2]; XRD-498 without insecticide, Examples 24-27) was 0-5%. The “% Inhibition Corn” value (Corn [2]; [11]) was 70%, the “% Inhibition Corn” value (Corn [2]; [12]) was 75% and the corn injury (Corn [2]; herbicide used in conjunction with COUNTER, Tables 29-37) was 55-70%. The corn injury (Corn [2]; herbicide without COUNTER, Tables 29-37) was 0-5%, the “% Inhibition Corn” value (Corn [2]; in vivo) was 50% and 30% and 55% and the “% Inhibition Corn” value (Corn [2]; in vivo, listed as XRD-498) was 75%. The inhibition at 140 g/ha (Velvetleaf (VELE); [13]) was 75%, the inhibition at 140 g/ha (Velvetleaf (VELE); [14]) was 80% and the inhibition at 140 g/ha (Velvetleaf (VELE); 312 h, Table 52, Herbicide No. 21 0.14 Kg/Ha, where applied Biocide No. 5 8.96 kg/Ha and antidote 4.48 Kg/Ha, all PPI, observed 13 days after treatment) was 80%. It also gave an inhibition at 140 g/ha (Velvetleaf (VELE); 312 h, Table 53, Herbicide No. 21 0.14 Kg/Ha, where applied Biocide No. 7 8.96 kg/Ha and antidote 4.48 Kg/Ha, all PPI, observed 13 days after treatment) of 85%, an inhibition at 20 g/ha (Velvetleaf (VELE); [3]) of 80% and an inhibition at 140 g/ha (Velvetleaf (VELE); 336 h, Table 54, Herbicide No. 21 0.14 Kg/Ha, where applied Biocide No. 6 8.96 kg/Ha and antidote 4.48 Kg/Ha, all PPI, observed 14 days after PPI initiation) of 85%. For the same molecule, the inhibition at 20 g/ha (Velvetleaf (VELE); [4]) was 80%, the “% Inhibition VELE” value (Velvetleaf (VELE); [6]) was 60% and the “% Inhibition VELE” value (Velvetleaf (VELE); [7]) was 45%. For the same molecule, the “% Inhibition VELE” value (Velvetleaf (VELE); [8]) was 60%, the “% Inhibition VELE” value (Velvetleaf (VELE); [9]) was 50% and the “% Inhibition VELE” value (Velvetleaf (VELE); [10]) was 90%. The “% Inhibition VELE” value (Velvetleaf (VELE); [12]) was 90%, the “% Inhibition VELE” value (Velvetleaf (VELE); in vivo) was 70% and 75% and the “% Inhibition VELE” value (Velvetleaf (VELE); in vivo, listed as XRD-498) was 90%. For the same molecule, the “% Inhibition GIFT” value (Giant foxtail (GIFT); [5]) was 95%, the “% Inhibition GIFT” value (Giant foxtail (GIFT); [6]) was 0% and the “% Inhibition GIFT” value (Giant foxtail (GIFT); [7]) was 0%. For the same molecule, the “% Inhibition GIFT” value (Giant foxtail (GIFT); [8]) was 0%, the “% Inhibition GIFT” value (Giant foxtail (GIFT); [9]) was 0% and the inhibition at 140 g/ha (Giant foxtail (GIFT); [13]) was 40%. It also gave an inhibition at 140 g/ha (Giant foxtail (GIFT); [14]) of 70%, an inhibition at 20 g/ha (Giant foxtail (GIFT); [3]) of 30% and an inhibition at 20 g/ha (Giant foxtail (GIFT); [4]) of 35%. For the same molecule, the “% Inhibition GIFT” value (Giant foxtail (GIFT); [10]) was 25%, the “% Inhibition GIFT” value (Giant foxtail (GIFT); [11]) was 75% and the “% Inhibition GIFT” value (Giant foxtail (GIFT); [12]) was 65%. For the same molecule, the “% Inhibition GIFT” value (Giant foxtail (GIFT); in vivo) was 60% and 75% and 90%.
